# According to ChEMBL document CHEMBL1201862, “PubChem BioAssay data set” (2004):
#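 How tested: cells in 96-well plates exposed to compound for 48 hours at five concentrations. GI50 marks 50% less growth.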 Active and inactive are the calls of the source. Rule as the data show it: active = GI50 up to about 1.1 µM and inactive = higher.
# Key:
# Assay in all cases: inhibition of tumour cell growth, NCI panel, 48 h
# [1] = test system: A498
# [2] = test system: CAKI-1
# [3] = test system: HCT-116
# [4] = test system: HCT-15
# [5] = test system: HOP-62
# [6] = test system: HOP-92
# [7] = test system: LOX IMVI
# [8] = test system: MCF7
# [9] = test system: MDA-MB-435
# [10] = test system: NCI-H226
# [11] = test system: NCI-H23
# [12] = test system: NCI-H460
# [13] = test system: NCI/ADR-RES
# [14] = test system: RPMI-8226
# [15] = test system: SNB-19
# [16] = test system: SNB-75
# [17] = test system: SW-620
# [18] = test system: TK-10
# [19] = test system: MOLT-4
# [20] = test system: SF-539
SMILES,GI50 [1],GI50 [2],GI50 [3],GI50 [4] [µM],GI50 [5],GI50 [6],GI50 [7],GI50 [8],GI50 [9],GI50 [10],GI50 [11],GI50 [12],GI50 [13],GI50 [14],GI50 [15],GI50 [16],GI50 [17],GI50 [18],GI50 [19],GI50 [20]
COc1ccc(Cc2ccccc2C(=O)O)c2ccccc12,22.8 µM (inactive),35.3 µM (inactive),20.7 µM (inactive),28.2,36.6 µM (inactive),18.8 µM (inactive),23.2 µM (inactive),38.1 µM (inactive),22 µM (inactive),39.4 µM (inactive),25.5 µM (inactive),18.8 µM (inactive),32.5 µM (inactive),29.4 µM (inactive),37.3 µM (inactive),34.4 µM (inactive),31.6 µM (inactive),24 µM (inactive),,
COc1ccc(-c2cc(-c3cc(C)cc(Br)c3O)no2)cc1,3.03 µM (inactive),6.98 µM (inactive),10.3 µM (inactive),24.1,8.67 µM (inactive),,6.03 µM (inactive),15.7 µM (inactive),15.9 µM (inactive),5.18 µM (inactive),14.7 µM (inactive),5.58 µM (inactive),7.67 µM (inactive),11.2 µM (inactive),10.5 µM (inactive),2.86 µM (inactive),16.3 µM (inactive),19.8 µM (inactive),13.5 µM (inactive),5.74 µM (inactive)
O=c1c2c3c(sc2nc2n1sc1nc4sc5c(c4c(=O)n12)CCCC5)CCCC3,> 100 µM (inactive),19.5 µM (inactive),35.7 µM (inactive),62.8,> 100 µM (inactive),51.2 µM (inactive),> 79.4 µM (inactive),23.8 µM (inactive),51.8 µM (inactive),> 50.7 µM (inactive),30.6 µM (inactive),> 100 µM (inactive),32.1 µM (inactive),22.2 µM (inactive),92.9 µM (inactive),,28.8 µM (inactive),89.1 µM (inactive),37.1 µM (inactive),56 µM (inactive)
CC(=O)OC1CCN(C(=O)c2ccccc2)CC1CC1(c2cc3ccccc3[nH]2)OCCO1 (stereo not given),26.7 µM (inactive),> 100 µM (inactive),72.6 µM (inactive),48.3,> 100 µM (inactive),48.9 µM (inactive),83.2 µM (inactive),> 100 µM (inactive),42.8 µM (inactive),> 100 µM (inactive),69.2 µM (inactive),,51.6 µM (inactive),22.3 µM (inactive),> 100 µM (inactive),49.4 µM (inactive),> 100 µM (inactive),53.2 µM (inactive),32.2 µM (inactive),
CSc1cc(Cl)c(C)cc1S(=O)(=O)NC(=O)NNc1ccc(C)cc1,> 100 µM (inactive),82 µM (inactive),> 100 µM (inactive),> 100,> 100 µM (inactive),,> 100 µM (inactive),> 100 µM (inactive),> 100 µM (inactive),> 100 µM (inactive),,> 100 µM (inactive),64.3 µM (inactive),,> 100 µM (inactive),8.26 µM (inactive),> 100 µM (inactive),,43 µM (inactive),> 100 µM (inactive)
COC(=O)Nc1nc2cc(C(=O)c3ccc[nH]3)ccc2[nH]1,3.04 µM (inactive),0.332 µM (active),0.267 µM (active),0.319,1.44 µM (inactive),,0.462 µM (active),0.341 µM (active),0.117 µM (active),1.16 µM (inactive),6.87 µM (inactive),0.596 µM (active),0.465 µM (active),0.49 µM (active),1.19 µM (inactive),0.235 µM (active),0.359 µM (active),1.67 µM (inactive),0.575 µM (active),2.4 µM (inactive)
COC(=O)/C=C/c1ccc2nncnc2c1.COC(=O)/C=C\c1ccc2nncnc2c1,71.8 µM (inactive),> 100 µM (inactive),81.5 µM (inactive),29,70.5 µM (inactive),,33.9 µM (inactive),42.5 µM (inactive),17.9 µM (inactive),> 100 µM (inactive),10 µM (inactive),10 µM (inactive),62.4 µM (inactive),> 100 µM (inactive),57.4 µM (inactive),18.7 µM (inactive),87.9 µM (inactive),> 100 µM (inactive),55.6 µM (inactive),31.9 µM (inactive)
COc1c(CC=C(C)C)c(O)c(C(CC(C)C)c2c(O)c3c(c(C(C)=O)c2O)OC(C(C)(C)O)C3)c(O)c1C(C)=O (stereo not given),3.84 µM (inactive),3.93 µM (inactive),3.64 µM (inactive),3.64,5.2 µM (inactive),2.71 µM (inactive),4.78 µM (inactive),3.61 µM (inactive),4.63 µM (inactive),,2.63 µM (inactive),,3.44 µM (inactive),0.968 µM (active),5.09 µM (inactive),4.92 µM (inactive),4.62 µM (inactive),,1.74 µM (inactive),4.24 µM (inactive)
